The source of these data is patent publication US20120129189A1, “Methods of Controlling Cell Proliferation” (priority 2009, published 2012).

In one assay the test system is active β-Catenin in ESCs. Put plainly: Western analysis of active β-Catenin in ESCs. Type of assay: cell-based.
The test system of assay [1] is β-Catenin/TCF activity in ESCs. Put plainly: β-Catenin/TCF-directed luciferase reporter (Topflash) in ESCs. The class given is cell-based. Particulars: increasing doses of DAPT, 72-96 h. As for the experimental part: For Notch, RBP-J or Numb/Numbl knockdown experiments, Notch1-4, RBPSUH or Numb/Numbl On-TARGETplus SMARTpool (Dharmacon L-041110, L-044202, L-047867, L-046498, L-007772 or L-046935/L-046983) or Block-iT Alexa Fluor Red (46-5, 318, Invitrogen) was used at concentrations of 50, 100, or 200 nM for cell transfection. Tethered and truncated forms of Notch1 constructs were kindly provided by Drs. R. Kopan (Washington University, St. Louis, Mo.) and M. Nakafuku (Cincinnati Children's Hospital, Cincinnati, Ohio), respectively. Cells were transfected with Lipofectamine LTX (Invitrogen) or Lipofectamine 2000 (Invitrogen) in single-cell suspensions. […] Real-time quantitative PCR data were normalized and standardized with SDS2.2 software. […]
FIGS. 1A-F. Notch Negatively Regulates Active β-Catenin in Stem Cells Independently of RBP-J (A) Western analysis of ESCs transfected with control or Notch1 (N1) siRNA (50 or 100 nM) with active β-Catenin (Act β-Cat) antibody that detects N-terminal-dephosphorylated β-Catenin. (B and C) Relative β-Catenin/TCF-directed luciferase activity in ESCs (B) or neural stem cells (NSCs) (C) transfected with control siRNA or siRNA against Notch1 or Notch1-4. β-Catenin/TCF activity was measured by co-transfecting cells with a luciferase reporter downstream of multiple TCF binding sites (Topflash). […]

The next assay relates to ESCs. The assay is described as follows: Relative number of ESCs after treatment. Type of assay: cell-based. As to conditions: DAPT 50 or 100 μM, 48 h. The source says: (§1) FIGS. 3A-I. Membrane-Bound Notch Negatively Regulates Active β-Catenin Levels in Stem Cells (A) Schematic representation of wildtype Notch1 and cleavage site-mutated tethered forms of Notch1 (V1744K and V1774L). […] (C) BIO-treated ESCs transfected with WT or mutant Notch1 constructs and, immunoprecipitated (IP) with anti-Myc antibody and immunoblotted (IB) with β-Catenin antibody. Notch1 expression was detected with anti-Myc antibody. Arrowheads indicate cleaved Notch1. (D) Western analysis of active β-Catenin in ESCs transfected with WT or mutant Notch1 constructs. (E) Relative β-Catenin/TCF activity of ESCs and NSCs treated with increasing doses of DAPT for 72-96 h. (F) Western analysis of active β-Catenin in ESCs, NSCs, and bone marrow mesenchymal stem cells (MSCs) treated with increasing doses (0, 25, 50 or 100 μM) of DAPT for 72-96 h. (G) Relative number of ESCs after treatment with DAPT (50 or 100 μM) for 48 h. (H) Relative expression of Cyclin D1 mRNA in ESCs transfected with control (LacZ) or tethered Notch (V1774L) and cultured for 72 h. (I) Relative expression of Brachyury, Nestin and Sox17 mRNA in ESCs maintained without LIF for 72 h after transfection with control (LacZ) or tethered Notch (V1774L); *, P<0.01; NS, not significant. […] Con, control.

The subject of assay [2] is hESCs, NSCs and bone marrow mesenchymal stem cells. The assay is described as follows: β-Catenin activity and protein in other stem cells. Particulars: increasing doses of DAPT, 72-96 h. Type of assay: cell-based.
From the text: as §1

The next assay concerns β-Catenin in SW480 cells. The assay is described as follows: Western analysis of β-Catenin in SW480 cells. Type of assay: cell-based, human. As for the experimental part:
(§2) Cells were scraped off the 100-mm dish and lysed in 1 ml of lysis buffer (1 mM PMSF, 1 mM EDTA, 10 mM Tris-HCl, 0.1% Triton X100, 1× Complete Protease Inhibitor Cocktail (Roche) in PBS). The lysates were spun down, and 1 μg of anti-c-Myc antibody (Sigma, M4439) or anti-Flag antibody (Sigma, F1804) was added to 500 μl of the supernatant. A 50-50 mixture of protein A Sepharose (Amersham) and protein G Sepharose (Amersham) was added to the lysate/antibody mixture for immunoprecipitation for 1 hour. The resulting outputs were washed with lysis buffer and subjected to western blot analysis. For western blotting, samples were analyzed using antibodies against active-β-Catenin (anti-ABC, Millipore), phospho-β-Catenin (Ser33/37/Thr41, Cell Signaling), β-Catenin (sc-1496, Santa Cruz Biotechnology) and Gapdh (Santa Cruz Biotechnology).
(§3) FIGS. 5A-I. γ-Secretase Inhibitors (GSIs) Suppress Expansion of Human Colon Cancer Cells by Blocking Notch Cleavage (A) Western analysis of active β-Catenin in SW480 colon cancer cells transfected with control or siRNA against Notch1-4 (100 nM each). (B) Relative β-Catenin/TCF activity of SW480 cells treated with increasing doses of DAPT for 96 h. (C) Western analysis of β-Catenin levels in SW480 and a second colon cancer cell line, HT-29, treated with increasing doses (0, 25, 50 or 100 μM) of DAPT for 96 h. (D) Relative number of SW480 cells treated with DAPT (50 or 100 μM) for 72 h. (E) Western analysis of active β-Catenin levels in SW480 cells with increasing DAPT in the presence or absence of proteasome inhibitor (PI) MG-132 (5 nM) for 72 h. […] (F) Notch/RBP-J activity of SW480 cells treated with increasing doses of Ibuprofen. Notch/RBP-J activity was measured by transfecting cells with a luciferase reporter downstream of multiple RBP-J sites. (G) Relative β-Catenin/TCF activity of SW480 cells treated with Ibuprofen for 72 h. (H) Western analysis of active β-Catenin in SW480 cells treated with Ibuprofen for 72 h. (I) Western analysis of active β-Catenin in SW480 cells transfected with Notch1-4 (100 nM each) siRNA and treated with or without ibuprofen. Gapdh antibody was used as a loading control. All luciferase values were normalized to Renilla activity and represent n=4. *, P<0.01. Con, control; N1-4 KD, Notch 1-4 siRNA.

In another assay the test system is β-Catenin in HT-29 cells. The assay is described as follows: Western analysis of β-Catenin in HT-29 cells. The class given is cell-based, human. As to conditions: HT-29, DAPT 0, 25, 50 or 100 μM, 96 h. As for the experimental part:
as §2
FIGS. 5A-I. γ-Secretase Inhibitors (GSIs) Suppress Expansion of Human Colon Cancer Cells by Blocking Notch Cleavage (A) Western analysis of active β-Catenin in SW480 colon cancer cells transfected with control or siRNA against Notch1-4 (100 nM each). (B) Relative β-Catenin/TCF activity of SW480 cells treated with increasing doses of DAPT for 96 h. […] Notch/RBP-J activity was measured by transfecting cells with a luciferase reporter downstream of multiple RBP-J sites. […]

The subject of assay [3] is β-Catenin/TCF activity in SW480 cells. The assay is described as follows: β-Catenin/TCF luciferase activity in SW480 cells. The class given is cell-based, human. As for the experimental part: (§4) For Notch, RBP-J or Numb/Numbl knockdown experiments, Notch1-4, RBPSUH or Numb/Numbl On-TARGETplus SMARTpool (Dharmacon L-041110, L-044202, L-047867, L-046498, L-007772 or L-046935/L-046983) or Block-iT Alexa Fluor Red (46-5, 318, Invitrogen) was used at concentrations of 50, 100, or 200 nM for cell transfection. Tethered and truncated forms of Notch1 constructs were kindly provided by Drs. R. Kopan (Washington University, St. Louis, Mo.) and M. Nakafuku (Cincinnati Children's Hospital, Cincinnati, Ohio), respectively. Cells were transfected with Lipofectamine LTX (Invitrogen) or Lipofectamine 2000 (Invitrogen) in single-cell suspensions. For gene expression analysis, qPCR was performed with the ABI Prism system (7900HT, Applied Biosystems) with the following primers: β-Catenin (Mm01350394_m1), Cyclin D1 (Mm00432359_m1), Gapdh (Mm99999915_g1). All samples were run at least in triplicate. Real-time quantitative PCR data were normalized and standardized with SDS2.2 software. […]
(§5) FIGS. 5A-I. γ-Secretase Inhibitors (GSIs) Suppress Expansion of Human Colon Cancer Cells by Blocking Notch Cleavage (A) Western analysis of active β-Catenin in SW480 colon cancer cells transfected with control or siRNA against Notch1-4 (100 nM each). […] Notch/RBP-J activity was measured by transfecting cells with a luciferase reporter downstream of multiple RBP-J sites. […]

The test system of a further assay is SW480 cells. Put plainly: Relative number of SW480 cells (cell expansion). The class given is cell-based, human. As to conditions: SW480 (FIG. 5D), DAPT 50 or 100 μM, 72 h; text names SW480 and HT-29. As for the experimental part:
as §3, with “Con, control; N1-4 KD, Notch 1-4 siRNA.” left out

Assay [4] has as its system Notch/RBP-J activity in SW480 cells. Put plainly: Notch/RBP-J-dependent luciferase activity in SW480 cells. Type of assay: cell-based, human. As to conditions: SW480, increasing doses of Ibuprofen. As for the experimental part: as §4, §5

Peptide text beside a SMILES is read from it. * marks the point of attachment. Cbz = O=C(OCc1ccccc1)*

From the text for active β-Catenin in ESCs: Gapdh antibody was used as a loading control. h, head; ht, heart tube; Con, control; N1 KD, Notch1 siRNA; N1-4 KD, Notch 1-4 siRNA.

In the case of `O=C1Nc2cc(Br)ccc2/C1=C1/Nc2ccccc2/C1=N\O` [BIO, 6-bromoindirubin-3′-oxime], the “active β-Catenin levels” value with active β-Catenin in ESCs (BIO 2 μM) was “greatly increases”.

`C[C@H](NC(=O)Cc1cc(F)cc(F)c1)C(=O)N[C@H](C(=O)OC(C)(C)C)c1ccccc1` [DAPT, N—[N-(3,5-difluorophenacetyl)-L-alanyl]-S-phenylglycine t-butyl ester]: in [1], the “active β-Catenin activity (relative β-Catenin/TCF activity)” value is “significant reduction”. The “active β-Catenin protein levels” value in the assay with active β-Catenin in ESCs (DAPT 0, 25, 50 or 100 μM, 72-96 h) was “significant reduction”. The cell numbers entry in the assay with ESCs is given as “significant decrease”. In assay [2], the “active β-Catenin activity and protein levels” value was “trend was also observed”. Also, the β-Catenin protein result in the assay with β-Catenin in SW480 cells (SW480, DAPT 0, 25, 50 or 100 μM, 96 h) is reported as “dose-dependent decrease”; in the assay on β-Catenin in HT-29 cells it was “dose-dependent decrease”. In addition, the TCF/β-Catenin-dependent transcriptional activity result in assay [3] (SW480 (FIG. 5B), increasing doses of DAPT, 96 h, text names SW480 and HT-29) is “dose-dependent decrease”. Moreover, the “cell expansion (relative cell number)” value in the assay on SW480 cells is “dose-dependent decrease”.

With `CC(C)Cc1ccc(C(C)C(=O)O)cc1` (centres unmarked) [Ibuprofen], in the assay with β-Catenin in SW480 cells (SW480, Ibuprofen, 72 h), the “active β-Catenin protein” value is recorded as “lowered”. Moreover, the “reduction of β-Catenin protein levels after knockdown of Notch1-4” value in the assay with β-Catenin in SW480 cells (SW480 transfected with Notch1-4 siRNA (100 nM each), with or without ibuprofen) is recorded as “not observed”. Moreover, the “active β-Catenin transcriptional activity” value in [3] (SW480, Ibuprofen, 72 h) is on record as “lowered”. In [4], the “canonical Notch transcriptional activity (Notch/RBP-J-dependent luciferase activity)” value was “dose-dependent decrease”.

On to `CC(C)C[C@@H](C=O)NC(=O)[C@H](CC(C)C)NC(=O)[C@H](CC(C)C)NC(=O)OCc1ccccc1` [MG-132] (Cbz-Leu-Leu-Leu-aldehyde), for which, in the assay on β-Catenin in SW480 cells (SW480, proteasome inhibitor MG-132 (5 nM), 72 h), the “active β-Catenin levels” value was “higher levels of β-Catenin”.
